Experimental data from PMC9736855, “Discovery of 3-Amino-1H-pyrazole-Based Kinase Inhibitors to Illuminate the Understudied PCTAIRE Family” (International Journal of Molecular Sciences, 2022).
Several values for one entry are separate records, joined by “and”; a condition that tells them apart may be missing. Identical values can stand only once.

Key:
DYRK2 = target: T1, DYRK2 (Homo sapiens, UniProt Q92630); assay: DSF; type: binding
T1 construct: purchased in-house DSF panel (SGC Frankfurt)
T1 sequence (Q92630 1-601): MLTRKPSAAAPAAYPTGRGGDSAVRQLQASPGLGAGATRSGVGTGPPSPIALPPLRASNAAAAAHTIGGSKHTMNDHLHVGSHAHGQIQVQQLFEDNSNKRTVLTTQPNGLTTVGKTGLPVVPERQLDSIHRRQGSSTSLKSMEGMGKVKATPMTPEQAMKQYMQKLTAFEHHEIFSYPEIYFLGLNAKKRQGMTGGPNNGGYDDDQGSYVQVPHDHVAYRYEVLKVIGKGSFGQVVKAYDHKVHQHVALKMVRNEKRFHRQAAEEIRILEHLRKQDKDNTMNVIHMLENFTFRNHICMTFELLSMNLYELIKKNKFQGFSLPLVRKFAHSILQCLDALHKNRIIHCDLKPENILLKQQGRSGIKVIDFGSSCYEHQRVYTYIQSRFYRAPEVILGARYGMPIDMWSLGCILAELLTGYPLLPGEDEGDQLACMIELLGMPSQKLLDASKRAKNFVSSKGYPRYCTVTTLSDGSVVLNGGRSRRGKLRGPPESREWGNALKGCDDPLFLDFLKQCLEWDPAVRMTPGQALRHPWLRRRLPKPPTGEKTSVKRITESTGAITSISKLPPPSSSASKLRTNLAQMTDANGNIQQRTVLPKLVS
Description: (§2) Recombinant protein kinase domains with a concentration of 2 μM were mixed with a 10 μM compound solution in DMSO, 20 mM HEPES, pH 7.5, and 500 mM NaCl. SYPRO Orange (5000×, Invitrogen) was added as a fluorescence probe (1 µl per mL). Subsequently, temperature-dependent protein unfolding profiles were measured, using the QuantStudio™ 5 realtime PCR machine (Thermo Fisher, Waltham, MA, USA). […] The temperature was raised with a step rate of 3 °C per minute. Data points were analyzed with the internal software (Thermal Shift SoftwareTM Version 1.4, Thermo Fisher) using the Boltzmann equation to determine the inflection point of the transition curve [56]. Differences in melting temperature are given as ΔTm values in °C. Measurements were performed in duplicates.

EPHA5 = target: T2, EPHA5 (Homo sapiens, UniProt P54756); assay: DSF; type: binding;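 further: compound tested at 10 µM with 2 µM protein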
T2 construct: purchased in-house DSF panel (SGC Frankfurt)
T2 sequence (P54756 653-939): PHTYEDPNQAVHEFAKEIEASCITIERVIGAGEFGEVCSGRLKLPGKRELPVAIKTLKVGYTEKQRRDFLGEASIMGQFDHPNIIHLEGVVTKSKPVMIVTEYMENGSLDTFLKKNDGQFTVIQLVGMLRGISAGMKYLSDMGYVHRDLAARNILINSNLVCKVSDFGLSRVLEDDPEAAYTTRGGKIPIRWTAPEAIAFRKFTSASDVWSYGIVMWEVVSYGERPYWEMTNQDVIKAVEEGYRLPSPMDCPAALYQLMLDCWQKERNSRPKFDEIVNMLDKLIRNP
Description: as §2

PIM1 = target: T3, PIM1 (Homo sapiens, UniProt P11309); assay: DSF; type: binding
T3 construct: purchased in-house DSF panel (SGC Frankfurt)
T3 sequence (P11309 whole entry): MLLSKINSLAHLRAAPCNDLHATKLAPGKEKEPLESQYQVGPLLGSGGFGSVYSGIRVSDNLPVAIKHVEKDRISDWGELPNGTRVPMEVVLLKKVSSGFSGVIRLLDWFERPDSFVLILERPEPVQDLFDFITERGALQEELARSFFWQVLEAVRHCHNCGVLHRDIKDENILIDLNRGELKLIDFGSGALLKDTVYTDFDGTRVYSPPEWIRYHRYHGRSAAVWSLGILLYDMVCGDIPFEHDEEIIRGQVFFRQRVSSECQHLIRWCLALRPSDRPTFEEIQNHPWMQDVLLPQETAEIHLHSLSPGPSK
Description: as §2

CAMK2D = target: T4, CAMK2D (Homo sapiens, UniProt Q13557); assay: DSF; type: binding;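 further: compound tested at 10 µM with 2 µM protein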
T4 construct: purchased in-house DSF panel (SGC Frankfurt)
T4 sequence (Q13557 11-309): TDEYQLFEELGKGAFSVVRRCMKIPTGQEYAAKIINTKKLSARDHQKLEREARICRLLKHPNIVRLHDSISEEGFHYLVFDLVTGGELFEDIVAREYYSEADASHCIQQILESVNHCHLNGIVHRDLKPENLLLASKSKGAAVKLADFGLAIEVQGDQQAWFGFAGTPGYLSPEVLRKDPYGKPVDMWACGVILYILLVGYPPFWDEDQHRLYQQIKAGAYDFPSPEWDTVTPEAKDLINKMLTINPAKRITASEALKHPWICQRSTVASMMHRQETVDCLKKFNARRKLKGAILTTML
Description: as §2

CDK16 and GSK3 = assay: proteome-wide CETSA MS; type: cell-based; settings: K562 cells, 30 µM, 60 min
Description: To verify whether the substances also lead to stabilization of proteins in the cellular system, proteome-wide CETSA experiments were performed. Therefore, lead structure 1 and some compounds from the second series (21b, 21d, 21e, 21h, and 21i) were selected for this study (Figure 6, Figure S1). While the statistical significance is plotted on the Y-axis, the relative protein amount is shown on the X-axis. […] Based on excellent proteome-wide selectivity identifying CDK16 and GSK3 as the most prominently stabilized kinases, 21d and 21i were selected for further investigations. […] We therefore decided to proceed with a CDK16-specific cellular assay.
Compressed CETSA MS assays, also known as PISA (Proteome Integral Stability Alteration assay), were performed as previously described by Chernobrovkin et. al., with some minor changes. K562 cells were obtained from ATCC. K562 cells were mixed with an equal volume of compound solution, final concentartion of 30 µM, in a buffer (20 mM HEPES, 138 mM NaCl, 5 mM KCl, 2 mM CaCl2, 1 mM MgCl2, pH 7.4). One percent and DMSO was used as a control. Cells were incubated at +37 °C for 60 min. The cell suspension was split into 12 aliquots which were heated at a different temperature between 44 and 66 °C for 3 min. After the heating, the cells were lysed through freeze–thawing them 3 times and the lysed aliquots were pooled together. Cell debris and aggregates were removed through centrifugation (20 min at 30.000× g).

CDK16 = target: T5, CDK16 (Homo sapiens, UniProt Q00536); assay: DSF; type: binding; settings: 10 μM compound
T5 construct: purchased in-house DSF panel (SGC Frankfurt)
T5 sequence (Q00536 163-478): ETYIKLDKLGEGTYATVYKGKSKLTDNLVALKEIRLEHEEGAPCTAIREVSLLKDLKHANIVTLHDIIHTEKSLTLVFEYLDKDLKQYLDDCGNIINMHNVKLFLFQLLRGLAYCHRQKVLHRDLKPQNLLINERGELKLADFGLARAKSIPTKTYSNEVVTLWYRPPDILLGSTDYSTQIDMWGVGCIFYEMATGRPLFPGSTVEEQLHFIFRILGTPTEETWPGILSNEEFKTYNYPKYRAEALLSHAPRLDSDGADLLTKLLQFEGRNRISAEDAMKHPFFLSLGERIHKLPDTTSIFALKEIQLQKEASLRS
Method in brief: (§1)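 Differential scanning fluorimetry follows unfolding of the protein through fluorescence of a dye that depends on folding state. The value is ΔTm, the melting-temperature shift between compound-free and compound-bound protein. Duplicate measurements.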

CDK2 = target: T6, CDK2 (Homo sapiens, UniProt P24941); assay: DSF; type: binding; settings: 10 μM compound
T6 construct: purchased in-house DSF panel (SGC Frankfurt)
Method in brief: as §1

MST4 = target: T7, MST4 (Homo sapiens, UniProt Q9P289); assay: DSF; type: binding
T7 construct: purchased in-house DSF panel (SGC Frankfurt)
T7 sequence (Q9P289 1-300): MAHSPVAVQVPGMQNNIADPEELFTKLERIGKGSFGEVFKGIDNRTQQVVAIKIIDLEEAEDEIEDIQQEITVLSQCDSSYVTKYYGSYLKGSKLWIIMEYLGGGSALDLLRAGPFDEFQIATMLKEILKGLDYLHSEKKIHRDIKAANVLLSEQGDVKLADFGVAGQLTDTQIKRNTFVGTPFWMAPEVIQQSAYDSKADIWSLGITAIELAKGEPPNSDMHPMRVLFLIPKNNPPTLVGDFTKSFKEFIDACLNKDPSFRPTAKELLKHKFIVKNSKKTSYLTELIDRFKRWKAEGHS
Description: as §2

CLK1 = target: T8, CLK1 (Homo sapiens, UniProt P49759); assay: DSF; type: binding;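 further: compound tested at 10 µM with 2 µM protein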
T8 construct: purchased in-house DSF panel (SGC Frankfurt)
T8 sequence (P49759 148-484): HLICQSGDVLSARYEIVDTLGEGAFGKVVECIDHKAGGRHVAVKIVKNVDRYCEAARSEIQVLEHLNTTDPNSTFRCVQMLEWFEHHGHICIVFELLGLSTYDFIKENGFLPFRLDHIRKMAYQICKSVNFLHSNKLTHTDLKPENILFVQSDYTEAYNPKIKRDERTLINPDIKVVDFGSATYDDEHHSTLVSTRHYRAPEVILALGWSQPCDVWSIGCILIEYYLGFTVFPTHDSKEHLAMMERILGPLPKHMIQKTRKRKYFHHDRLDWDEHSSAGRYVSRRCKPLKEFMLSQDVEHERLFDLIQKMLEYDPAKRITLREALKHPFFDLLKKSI
Description: as §2

RPS6KA6 = assay: DSF; type: binding
Description: as §2

AAK1 = target: T9, AAK1 (Homo sapiens, UniProt Q2M2I8); assay: DSF; type: binding
T9 construct: purchased in-house DSF panel (SGC Frankfurt)
T9 sequence (Q2M2I8 27-365): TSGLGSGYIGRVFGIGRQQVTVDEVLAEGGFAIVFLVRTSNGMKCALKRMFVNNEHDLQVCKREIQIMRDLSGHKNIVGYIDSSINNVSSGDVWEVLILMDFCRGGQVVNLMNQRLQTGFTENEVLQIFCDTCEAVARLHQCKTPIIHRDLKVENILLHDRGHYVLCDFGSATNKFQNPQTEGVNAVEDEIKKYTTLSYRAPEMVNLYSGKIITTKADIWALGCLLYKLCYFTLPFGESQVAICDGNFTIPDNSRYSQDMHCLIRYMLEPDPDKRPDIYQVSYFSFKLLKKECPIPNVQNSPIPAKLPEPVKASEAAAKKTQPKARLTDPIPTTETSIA
Description: as §2

MAPK9 = target: T10, MAPK9 (Homo sapiens, UniProt P45984); assay: DSF; type: binding;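 further: compound tested at 10 µM with 2 µM protein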
T10 construct: purchased in-house DSF panel (SGC Frankfurt)
T10 sequence (P45984 1-364): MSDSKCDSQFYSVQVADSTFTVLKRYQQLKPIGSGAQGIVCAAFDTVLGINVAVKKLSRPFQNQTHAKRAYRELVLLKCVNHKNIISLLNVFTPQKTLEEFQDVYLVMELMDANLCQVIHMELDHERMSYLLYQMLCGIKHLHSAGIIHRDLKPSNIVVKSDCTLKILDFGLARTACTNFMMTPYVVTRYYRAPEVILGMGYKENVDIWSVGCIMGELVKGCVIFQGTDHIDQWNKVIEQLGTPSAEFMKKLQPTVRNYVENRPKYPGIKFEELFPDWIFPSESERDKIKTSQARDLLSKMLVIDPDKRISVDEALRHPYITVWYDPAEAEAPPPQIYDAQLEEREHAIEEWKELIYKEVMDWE
Description: as §2

GPRK5 = target: T11, GPRK5 (Homo sapiens, UniProt P34947); assay: DSF; type: binding
T11 construct: purchased in-house DSF panel (SGC Frankfurt)
T11 sequence (P34947 whole entry): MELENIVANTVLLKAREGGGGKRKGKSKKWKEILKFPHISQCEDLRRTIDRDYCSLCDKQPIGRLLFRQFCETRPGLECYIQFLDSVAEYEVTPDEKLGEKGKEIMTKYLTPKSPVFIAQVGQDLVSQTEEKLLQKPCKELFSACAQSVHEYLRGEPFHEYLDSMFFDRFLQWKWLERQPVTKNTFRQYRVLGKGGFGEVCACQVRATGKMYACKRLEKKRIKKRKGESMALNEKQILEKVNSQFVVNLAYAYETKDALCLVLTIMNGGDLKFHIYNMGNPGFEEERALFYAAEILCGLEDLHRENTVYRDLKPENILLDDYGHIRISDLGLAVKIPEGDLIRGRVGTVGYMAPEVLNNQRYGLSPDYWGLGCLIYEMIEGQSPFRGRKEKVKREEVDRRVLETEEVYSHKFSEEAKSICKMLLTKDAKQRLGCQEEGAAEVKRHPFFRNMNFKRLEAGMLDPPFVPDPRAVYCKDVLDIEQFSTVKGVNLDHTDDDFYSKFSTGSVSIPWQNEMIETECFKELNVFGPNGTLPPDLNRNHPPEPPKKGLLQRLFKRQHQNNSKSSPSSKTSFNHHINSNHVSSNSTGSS
Description: as §2

FGFR2 = target: T12, FGFR2 (Homo sapiens, UniProt P21802); assay: DSF; type: binding;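 further: compound tested at 10 µM with 2 µM protein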
T12 construct: purchased in-house DSF panel (SGC Frankfurt)
T12 sequence (P21802 458-770): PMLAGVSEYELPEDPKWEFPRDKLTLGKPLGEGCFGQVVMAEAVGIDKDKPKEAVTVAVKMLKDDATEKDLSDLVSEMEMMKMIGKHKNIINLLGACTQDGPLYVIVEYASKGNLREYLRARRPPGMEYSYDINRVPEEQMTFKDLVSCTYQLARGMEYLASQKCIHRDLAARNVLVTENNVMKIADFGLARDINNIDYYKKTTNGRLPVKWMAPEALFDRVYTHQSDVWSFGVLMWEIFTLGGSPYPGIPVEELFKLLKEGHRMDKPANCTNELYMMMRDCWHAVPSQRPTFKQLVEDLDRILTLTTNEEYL
Description: as §2

[1] = system: in-house panel of 89–105 kinases; assay: DSF selectivity screen; type: binding
From the text: To investigate the selectivity profile of the different series, a differential scanning fluorimetry (DSF) assay was used. This assay offers a rapid and sensitive screening method that determines the denaturation temperature of a protein in absence and presence of a compound. This assay format measures the fluorescence of a dye, which depends on the folding state of the protein. The difference between the melting temperature (ΔTm) in the absence and presence of the compound represents the binding strength to the protein. We used an in-house panel of 89–105 kinases to screen all synthesized inhibitors (Tables S1–S3).
Measurements were performed in duplicates.

Compound | ΔTm DYRK2 (DYRK2) | ΔTm EPHA5 (EPHA5) | ΔTm PIM1 (PIM1) | ΔTm CAMK2D (CAMK2D) | stabilization in CETSA MS (CDK16 and GSK3) | ΔTm at 10 µM (CDK16) | ΔTm at 10 µM (CDK2) | ΔTm MST4 (MST4) | ΔTm CLK1 (CLK1) | ΔTm RPS6KA6 (RPS6KA6) | ΔTm AAK1 (AAK1) | ΔTm MAPK9 (MAPK9) | ΔTm GPRK5 (GPRK5) | ΔTm FGFR2 (FGFR2) | kinases beside CDK16 with DSF shift >5 °C (potential off-targets) [1] | Kinases with shifts > 5°C ([1]; number of kinases of the DSF panel)
N#CCc1ccc(Nc2nccc(Nc3cc(C4CC4)[nH]n3)n2)cc1 [compound 1, reference compound] | 11.0 °C | 6.3 °C | 3.3 °C | 4.5 °C | stabilization of CDK16 and GSK3 | 10.3 °C | 15.2 °C | 7.1 °C | 12.2 °C | 0.4 °C | 13.8 °C | 6.5 °C | 5.2 °C | 5.9 °C |  | 
CC(C)(C)OC(=O)Nc1ccc(CNc2nccc(Nc3cc(C(=O)OC(C)(C)C)[nH]n3)n2)cc1 [43d, tert-butyl 3-((2-((4-((tert-butoxycarbonyl)amino)benzyl)amino)pyrimidin-4-yl)amino)-1H-pyrazole-5-carboxylate] | 0.8 °C | -2.7 °C | -0.7 °C | -0.1 °C |  | 9.2 °C | 3.2 °C | -0.1 °C | -0.5 °C |  | 1.0 °C | -1.4 °C | -1.4 °C | 0.3 °C | 1–2 and 2 | 
CC(C)OC(=O)c1cc(Nc2ccnc(NCc3ccc(NC(=O)OC(C)(C)C)cc3)n2)n[nH]1 [42d, isopropyl 3-((2-((4-((tert-butoxycarbonyl)amino)benzyl)amino)pyrimidin-4-yl)amino)-1H-pyrazole-5-carboxylate] | 0.5 °C | -0.6 °C | 0.2 °C | -0.4 °C |  | 8.4 °C | 3 °C | 0.1 °C | 0.0 °C |  | 0.5 °C | -0.7 °C | -1.3 °C | 0.1 °C | 1–2 and 1 | 
COC(=O)c1cc(Nc2ccnc(NCCOCCNC(=O)OC(C)(C)C)n2)[nH]n1 [21d, methyl 5-((2-((2-(2-((tert-butoxycarbonyl)amino)ethoxy)ethyl)amino)pyrimidin-4-yl)amino)-1H-pyrazole-3-carboxylate] | 2.1 °C | 0.2 °C | 2.1 °C | 0.8 °C | stabilization of CDK16 and GSK3 | 4.3 °C | 1.9 °C | 0.7 °C | 1.8 °C | -0.3 °C | 4.1 °C | 1.1 °C | 0.2 °C | 1.5 °C |  | 
COC(=O)c1cc(Nc2ccnc(NCc3ccc(NC(=O)OC(C)(C)C)cc3)n2)[nH]n1 [21i, methyl 5-((2-((4-((tert-butoxycarbonyl)amino)benzyl)amino)pyrimidin-4-yl)amino)-1H-pyrazole-3-carboxylate] | 1.1 °C | 0.2 °C | -0.6 °C | 0.6 °C | stabilization of CDK16 and GSK3 | 6.5 °C | 3.3 °C | -0.7 °C | 1.3 °C | -0.3 °C | 2.0 °C | 1.7 °C | 0.7 °C | 0.2 °C |  | 4–9
